Measured values taken from ChEMBL document CHEMBL1130235, “4-hydroxy-5,6-dihydropyrones. 2. Potent non-peptide inhibitors of HIV protease” (J Med Chem, 1997).
pIC50: −log10 of the molar value.

Experiments:
[1] = target: T1, Human immunodeficiency virus type 1 protease (Human immunodeficiency virus 1, UniProt Q72874); experiment: Inhibitory activity against HIV protease
[2] = target: T1, Human immunodeficiency virus type 1 protease; experiment: Inhibitory activity against HIV protease at pH 4.7
[3] = target: T1, Human immunodeficiency virus type 1 protease; experiment: Inhibitory activity against HIV protease at pH 6.2

Structure (SMILES)	pIC50 [1]	pIC50 [2]	pIC50 [3]
O=C1CC(CCc2ccccc2)(c2ccccc2)OC(O)=C1Sc1ccccc1C1CCCCC1 (stereo not drawn)	7.49	–	–
Cc1ccc(C(C)C)c(SC2=C(O)OC(CCc3ccccc3)(c3ccccc3)CC2=O)c1 (stereo not drawn)	–	8.15	7.10
Cc1ccc(C(C)C)c(SC2=C(O)OC(c3ccccc3)(c3ccccc3)CC2=O)c1	7.42	–	–
CCCCC1(c2ccccc2)CC(=O)C(SCCc2ccccc2)=C(O)O1 (stereo not drawn)	6.40	–	–
O=C1CC2(CCCc3ccccc32)OC(O)=C1SCCc1ccccc1 (stereo not drawn)	5.89	–	–
CC(C)CCCC1(c2ccccc2)CC(=O)C(SCc2ccccc2)=C(O)O1 (stereo not drawn)	6.74	–	–
CN(CC1(c2ccccc2)CC(=O)C(SCCc2ccccc2)=C(O)O1)c1ccccc1 (stereo not drawn)	5.64	–	–
CCCCC1(c2ccccc2)CC(=O)C(SCc2ccccc2)=C(O)O1 (stereo not drawn)	6.57	–	–
CC(C)c1ccc(C(C)C)c(SC2=C(O)OC(c3ccccc3)(c3ccccc3)CC2=O)c1	6.92	–	–
CC(C)c1ccccc1SC1=C(O)OC(CCc2ccccc2)(c2ccccc2)CC1=O (stereo not drawn)	–	7.85	7.01
CC(C)CCC1(c2ccccc2)CC(=O)C(SCc2ccccc2)=C(O)O1 (stereo not drawn)	7.01	–	–
O=C1CC(c2ccccc2)OC(O)=C1SCc1ccccc1 (stereo not drawn)	5.05	–	–
O=C1CC2(CCc3ccccc32)OC(O)=C1SCc1ccccc1 (stereo not drawn)	4.93	–	–
O=C1CC(c2ccccc2)(c2ccccc2)OC(O)=C1SCc1ccccc1	6.58	–	–
O=C1CC(CC2CCCCC2)(c2ccccc2)OC(O)=C1SCc1ccccc1 (stereo not drawn)	6.86	–	–
O=C(O)CCCC1(c2ccccc2)CC(=O)C(SCCc2ccccc2)=C(O)O1 (stereo not drawn)	6.57	–	–

Structure (SMILES)	pIC50 [1]	pIC50 [2]	pIC50 [3]
CCCCCCC1(c2ccccc2)CC(=O)C(SCCc2ccccc2)=C(O)O1 (stereo not drawn)	6.95	–	–
Cc1ccc(C(C)C)c(SC2=C(O)O[C@](CCc3ccccc3)(c3ccccc3)CC2=O)c1	8.22	–	–
O=C1CC(CC2CCCC2)(c2ccccc2)OC(O)=C1SCCc1ccccc1 (stereo not drawn)	6.29	–	–
CCCC1(c2ccccc2)CC(=O)C(SCc2ccccc2)=C(O)O1 (stereo not drawn)	6.54	–	–
O=C1CC(CCc2ccccc2)(c2ccccc2)OC(O)=C1Sc1ccccc1 (stereo not drawn)	6.89	–	–
O=C(O)CCC1(c2ccccc2)CC(=O)C(SCCc2ccccc2)=C(O)O1 (stereo not drawn)	5.92	–	–
O=C1CC(CCCCO)(c2ccccc2)OC(O)=C1SCc1ccccc1 (stereo not drawn)	5.90	–	–
O=C1CC(CCc2ccccc2)(c2ccccc2)OC(O)=C1SCCc1ccccc1 (stereo not drawn)	7.29	–	–
CCCCCC1(c2ccccc2)CC(=O)C(SCCc2ccccc2)=C(O)O1 (stereo not drawn)	7.08	–	–
O=C1CC(c2ccccc2)(c2ccccc2)OC(O)=C1Sc1ccccc1	6.96	–	–
O=C1CC(c2ccccc2)(c2ccccc2)OC(O)=C1Sc1ccccc1C1CCCC1	7.85	–	–
CC(C)CCCC1(c2ccccc2)CC(=O)C(SCCc2ccccc2)=C(O)O1 (stereo not drawn)	6.81	–	–
O=C1CC(c2ccccc2)(c2ccncc2)OC(O)=C1SCCc1ccccc1 (stereo not drawn)	6.10	–	–
CC(C)CCC1(c2ccccc2)CC(=O)C(Sc2ccccc2)=C(O)O1 (stereo not drawn)	5.85	–	–
CCCCCC1(c2ccccc2)CC(=O)C(SCc2ccccc2)=C(O)O1 (stereo in doubt; 15b)	6.49	–	–

Other lines, results leading:

pIC50 [1]	pIC50 [2]	pIC50 [3]	Structure (SMILES)
5.89	–	–	NC(=O)CCCC1(c2ccccc2)CC(=O)C(SCCc2ccccc2)=C(O)O1 (stereo not drawn)
7.85	–	–	CC(C)c1ccc(C(C)C)c(SC2=C(O)OC(CCc3ccccc3)(c3ccccc3)CC2=O)c1 (stereo not drawn)
5.92	–	–	CC(C)CC1(c2ccccc2)CC(=O)C(SCCc2ccccc2)=C(O)O1 (stereo not drawn)
8.00	–	–	CCC(C)c1ccccc1SC1=C(O)OC(CCc2ccccc2)(c2ccccc2)CC1=O (stereo not drawn)
6.36	–	–	CC(C)CC1(c2ccccc2)CC(=O)C(SCc2ccccc2)=C(O)O1 (stereo not drawn)
7.33	–	–	CC(C)c1ccc(C(C)(C)C)c(SC2=C(O)OC(CCc3ccccc3)(c3ccccc3)CC2=O)c1 (stereo not drawn)
7.06	–	–	O=C1CC(CC2CCCC2)(c2ccccc2)OC(O)=C1SCc1ccccc1 (stereo not drawn)
7.02	–	–	CC(C)CCC1(c2ccccc2)CC(=O)C(SCCc2ccccc2)=C(O)O1 (stereo not drawn)
–	8.52	6.98	CC(C)(C)c1ccccc1SC1=C(O)OC(CCc2ccccc2)(c2ccccc2)CC1=O (stereo not drawn)
6.76	–	–	O=C1CC(COc2ccccc2)(c2ccccc2)OC(O)=C1SCc1ccccc1 (stereo not drawn)
6.82	–	–	O=C1CC(c2ccccc2)(c2ccccc2)OC(O)=C1SCCc1ccccc1
7.64	–	–	CC(C)c1ccccc1SC1=C(O)OC(c2ccccc2)(c2ccccc2)CC1=O
8.30	–	–	O=C(O)CCCCC1(c2ccccc2)CC(=O)C(SCCc2ccccc2)=C(O)O1 (stereo not drawn)
7.77	–	–	CCC(C)c1ccccc1SC1=C(O)OC(c2ccccc2)(c2ccccc2)CC1=O (stereo not drawn)
6.74	–	–	CCCCCCC1(c2ccccc2)CC(=O)C(SCc2ccccc2)=C(O)O1 (stereo not drawn)
6.47	–	–	NC(=O)CCCCC1(c2ccccc2)CC(=O)C(SCCc2ccccc2)=C(O)O1 (stereo not drawn)

pIC50 [1]	pIC50 [2]	pIC50 [3]	Structure (SMILES)
5.29	–	–	CCCC1(c2ccccc2)CC(=O)C(SCCc2ccccc2)=C(O)O1 (stereo not drawn)
–	7.77	–	Cc1ccc(C(C)C)c(Sc2c(O)cc(-c3ccccc3)oc2=O)c1
6.89	–	–	Cc1ccc(C(C)C)c(SC2=C(O)O[C@@](CCc3ccccc3)(c3ccccc3)CC2=O)c1
–	7.77	–	CC(C)(C)c1ccccc1Sc1c(O)cc(-c2ccccc2)oc1=O
5.51	–	–	O=c1cc(-c2ccccc2)oc(O)c1Sc1ccccc1
7.92	–	–	Cc1ccc(C(C)(C)C)c(SC2=C(O)OC(c3ccccc3)(c3ccccc3)CC2=O)c1
5.68	–	–	O=C1CC(c2ccccc2)OC(O)=C1SCCc1ccccc1 (stereo not drawn)
5.64	–	–	O=C1CC2(CCCc3ccccc32)OC(O)=C1SCc1ccccc1 (stereo not drawn)
6.41	–	–	Cc1ccccc1SC1=C(O)OC(c2ccccc2)(c2ccccc2)CC1=O
6.90	–	–	O=C1CC(c2ccccc2)(c2ccccc2)OC(O)=C1Sc1ccccc1C1CCCCC1
7.14	–	–	Cc1ccccc1SC1=C(O)OC(CCc2ccccc2)(c2ccccc2)CC1=O (stereo not drawn)
–	7.55	6.55	Cc1ccc(C(C)(C)C)c(Sc2c(O)cc(-c3ccccc3)oc2=O)c1
7.31	–	–	CC(C)(C)c1ccccc1SC1=C(O)OC(c2ccccc2)(c2ccccc2)CC1=O
–	8.00	7.46	Cc1ccc(C(C)(C)C)c(SC2=C(O)OC(CCc3ccccc3)(c3ccccc3)CC2=O)c1 (stereo not drawn)
7.22	–	–	O=C1CC(CCc2ccccc2)(c2ccccc2)OC(O)=C1SCc1ccccc1 (stereo not drawn)
6.91	–	–	CCCCCC1(c2ccccc2)CC(=O)C(SCc2ccccc2)=C(O)O1 (stereo in doubt; 4b)
